These results are taken from publication PMC11148045, “Structural basis for recognition of 26RFa by the pyroglutamylated RFamide peptide receptor” (Cell Discovery, 2024).

Broadly, the Emax is the greatest response seen or fitted, relative to the assay's reference.

No end group written: not given here.

For assay [1], the target named is T1, QRFPR mutants (Homo sapiens, UniProt Q96P65, Q125A).
T1 construct: expressed in transfected cells; host or cells: HEK293, transient transfection by electroporation
Kind of assay: 26RFa-induced calcium mobilization, receptor mutants. Conditions: HEK293, QRFPR Q125^3.32A; HEK293, Fluo-4; mean ± S.E.M., n ≥ 3. In kind it is cell-based. On the procedure:
(§1) The gene encoding the WT QRFPR, PrPRR, KISS1R, NPFF1R, or NPFF2R was subcloned into the pcDNA3.0 vector with the addition of an N-terminal HA tag. All of the mutations used for functional studies were generated by QuickChange PCR and verified by DNA sequencing.
(§2) HEK293 cells were obtained from ATCC (Manassas, VA, USA) and cultured in DMEM supplemented with 10% (v/v) FBS, 100 mg/L penicillin, and 100 mg/L streptomycin in 5% CO2 at 37 °C. For transient transfection, ~2.5 × 10^6 cells were mixed with 2 µg plasmids in 200 µL transfection buffer, and electroporation was carried out with a Scientz-2C electroporation apparatus (Scientz Biotech, Ningbo, China). The experiments were carried out 24 h after transfection.
(§3) For QRFPR, PrRPR, and KISS1R, HEK293 cells transfected with WT receptor or its mutants were seeded at a density of 4 × 10^4 per well into 96-well culture plates and incubated for 24 h at 37 °C in 5% CO2. For NPFF1R and NPFF2R, plasmids were transfected into HEK293 cells stably expressing Gα16. On the next day, cells were incubated with 2 μmol/L Fluo-4 AM in HBSS supplemented with 5.6 mmol/L D-glucose and 250 μmol/L sulfinpyrazone at 37 °C for 45 min. After washing, cells were added with 50 μL HBSS and incubated at room temperature for 10 min, then 25 μL agonist buffer was dispensed into the well using a FlexStation III microplate reader (Molecular Devices), and intracellular calcium change was recorded at an excitation wavelength of 485 nm and an emission wavelength of 525 nm. EC50 and Emax values for each curve were calculated by Prism 8.0 software (GraphPad Software).
On the technique in general: A change in cytosolic calcium serves as a functional read-out for many receptors and channels.

Assay [2] has as its target T2, QRFPR mutants (Homo sapiens, UniProt Q96P65, D307A).
T2 construct: expressed in transfected cells; host or cells: HEK293, transient transfection by electroporation
The description is as above. In kind it is cell-based. Conditions: HEK293, QRFPR D307^7.27A; HEK293, Fluo-4; mean ± S.E.M., n ≥ 3. On the procedure:
as §1, §2, §3

Assay [3] concerns the target T3, QRFPR mutants (Homo sapiens, UniProt Q96P65, I218A).
T3 construct: expressed in transfected cells; host or cells: HEK293, transient transfection by electroporation
Described as above. In kind it is cell-based. Conditions: HEK293, QRFPR I218^5.42A; HEK293, Fluo-4; mean ± S.E.M., n ≥ 3. Here is the method: as §1, §2, §3

Assay [4] concerns the target T4, QRFPR mutants (Homo sapiens, UniProt Q96P65, N110A).
T4 construct: expressed in transfected cells; host or cells: HEK293, transient transfection by electroporation
The assay is described as above. The class given is cell-based. The conditions noted are these: HEK293, QRFPR N110^23.49A; HEK293, Fluo-4; mean ± S.E.M., n ≥ 3. Here is the method: as §1, §2, §3

The subject of assay [5] is QRFPR mutants. The assay is described as above. The class given is cell-based, human. Here is the method: as §1, §2, §3
Assay [6] deals with T5, QRFPR mutants (Homo sapiens, UniProt Q96P65, Q211A).
T5 construct: expressed in transfected cells; host or cells: HEK293, transient transfection by electroporation
The assay is described as above. The class given is cell-based. Conditions: HEK293, QRFPR Q211^5.35A; HEK293, Fluo-4; mean ± S.E.M., n ≥ 3. On the procedure: as §1, §2, §3

Assay [7] addresses T6, QRFPR mutants (Homo sapiens, UniProt Q96P65, Q184A).
T6 construct: expressed in transfected cells; host or cells: HEK293, transient transfection by electroporation
Described as above. In kind it is cell-based. Conditions: HEK293, QRFPR Q184^4.64A; HEK293, Fluo-4; mean ± S.E.M., n ≥ 3. On the procedure: as §1, §2, §3

In assay [8] the target is T7, QRFPR mutants (Homo sapiens, UniProt Q96P65, E297A).
T7 construct: expressed in transfected cells; host or cells: HEK293, transient transfection by electroporation
Described as above. The class given is cell-based. On the procedure: as §1, §2, §3

The target in assay [9] is T8, QRFPR mutants (Homo sapiens, UniProt Q96P65, Q318A).
T8 construct: expressed in transfected cells; host or cells: HEK293, transient transfection by electroporation
The assay is described as above. In kind it is cell-based. Conditions: HEK293, QRFPR Q318^7.39A; HEK293, Fluo-4; mean ± S.E.M., n ≥ 3. On the procedure: as §1, §2, §3

For assay [10], the target named is T9, QRFPR mutants (Homo sapiens, UniProt Q96P65, K189A).
T9 construct: expressed in transfected cells; host or cells: HEK293, transient transfection by electroporation
The assay is described as above. Conditions: HEK293, QRFPR K189^ECL2A; HEK293, Fluo-4; mean ± S.E.M., n ≥ 3. In kind it is cell-based. Here is the method: as §1, §2, §3

Assay [11] deals with T10, QRFPR mutants (Homo sapiens, UniProt Q96P65, W205A).
T10 construct: expressed in transfected cells; host or cells: HEK293, transient transfection by electroporation
The assay is described as above. The class given is cell-based. Conditions: HEK293, QRFPR W205^ECL2A; HEK293, Fluo-4; mean ± S.E.M., n ≥ 3. Here is the method:
as §1, §2, §3

For assay [12], the system named is NPY1R and NPY4R. The conditions noted are these: cited from earlier work. The text has this: Specifically, Arg25 and Arg35 in 26RFa and NPY/PP are exposed to a conserved polar environment that includes residues E^45.52, T^5.39, and D/E^6.59 in QRFPR and NPYRs. However, subtle differences exist in the special binding interactions between these arginines and conserved polar residues (Fig. 4d–f). Side chains of Arg35 in NPY/PP form a conserved salt bridge with D^6.59 and a hydrogen bond with T^5.39 (NPY1R and NPY4R) or a salt bridge with E^45.52 (NPY2R) (Fig. 4e, f). In 26RFa, Arg25 retains its salt bridge with E203^45.52 but fails to build a salt bridge with E297^6.59 (Fig. 3b). It is p ... || Phe26 in 26RFa and Tyr36 in NPY/PP show distinct binding characteristics for QRFRP and NPYRs, respectively. […] (Fig. 4e). However, in NPY2R, this hydrogen bond is absent due to the substitution of glutamine with leucine at position 5.46, which lacks a hydrogen bond donor (Fig. 4c, f). Similarly, QRFPR also has a leucine at position 5.46, which cannot form a corresponding hydrogen bond with Phe26 in 26RFa. Furthermore, in contrast to the notable impact of Q^5.46 on the NP ...

The target in assay [13] is T11, QRFPR (WT) (Homo sapiens, UniProt Q96P65).
T11 construct: expressed in transfected cells; host or cells: HEK293, transient transfection by electroporation
The assay is described as follows: 26RFa-induced calcium mobilization, wild-type receptor. In kind it is cell-based. The conditions noted are these: HEK293, Fluo-4 AM, ex 485/em 525 nm, mean ± S.E.M., at least three independent experiments. Here is the method: as §1, §2
as §3, with “For NPFF1R and NPFF2R, plasmids were transfected into HEK293 cells stably expressing Gα16. On the next day, cells were incubated with 2 μmol/L Fluo-4 AM in HBSS supplemented with 5.6 mmol/L D-glucose and 250 μmol/L sulfinpyrazone at 37 °C for 45 min.” left out

Assay [14] concerns QRFPR. Conditions: cited from earlier work. The text has this: The 26RFa/QRFPR system plays critical roles in energy homeostasis. Uncovering the atomic details of 26RFa recognition and regulation of QRFPR is crucial for unraveling the function of QRFPR and developing effective treatments against obesity, diabetes, and eating disorders. […] The unique organization mode is crucial for the recognition of 26RFa by QRFPR. The C-terminal heptapeptide of 26R ...

T7 sequence (Q96P65 whole entry E297A): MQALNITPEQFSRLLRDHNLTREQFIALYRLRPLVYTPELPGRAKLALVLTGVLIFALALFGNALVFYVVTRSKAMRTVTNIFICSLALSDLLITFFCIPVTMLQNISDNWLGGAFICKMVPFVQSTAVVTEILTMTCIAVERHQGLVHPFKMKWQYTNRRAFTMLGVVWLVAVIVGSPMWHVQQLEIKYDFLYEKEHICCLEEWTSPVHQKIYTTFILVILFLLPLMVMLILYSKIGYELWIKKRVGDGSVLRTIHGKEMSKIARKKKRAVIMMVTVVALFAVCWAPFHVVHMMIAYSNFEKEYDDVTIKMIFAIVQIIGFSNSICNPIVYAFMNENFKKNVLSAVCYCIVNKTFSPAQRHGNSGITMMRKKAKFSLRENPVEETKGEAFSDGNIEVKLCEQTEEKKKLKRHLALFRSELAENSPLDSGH
T11 sequence (Q96P65 whole entry): as the sequence (Q96P65 whole entry E297A) above, with A297E counted along it
T10 sequence (Q96P65 whole entry W205A): as the sequence (Q96P65 whole entry E297A) above, with W205A, A297E counted along it
T4 sequence (Q96P65 whole entry N110A): as the sequence (Q96P65 whole entry E297A) above, with N110A, A297E counted along it
T5 sequence (Q96P65 whole entry Q211A): as the sequence (Q96P65 whole entry E297A) above, with Q211A, A297E counted along it
T9 sequence (Q96P65 whole entry K189A): as the sequence (Q96P65 whole entry E297A) above, with K189A, A297E counted along it
T6 sequence (Q96P65 whole entry Q184A): as the sequence (Q96P65 whole entry E297A) above, with Q184A, A297E counted along it
T3 sequence (Q96P65 whole entry I218A): as the sequence (Q96P65 whole entry E297A) above, with I218A, A297E counted along it
T1 sequence (Q96P65 whole entry Q125A): as the sequence (Q96P65 whole entry E297A) above, with Q125A, A297E counted along it
T8 sequence (Q96P65 whole entry Q318A): as the sequence (Q96P65 whole entry E297A) above, with A297E, Q318A counted along it
T2 sequence (Q96P65 whole entry D307A): as the sequence (Q96P65 whole entry E297A) above, with A297E, D307A counted along it

On to ASGPLGTLAEELSSYSRRKGGFSFRF-NH2 [26RFa], for which the Emax was 14.1 ± 1.8% in [1]; 106 ± 0.64% in [2]; 77.8 ± 0.31% in assay [3]; 98.6 ± 2.3% in assay [4]; 94.9 ± 1.6% in assay [6]; 71.4 ± 2.2% in [7]. Further, the Emax in [8] (HEK293, QRFPR E297^6.59A, HEK293, Fluo-4, mean ± S.E.M., n ≥ 3) worked out at 107 ± 0.8%; in [9], 1.69 ± 0.66%; in [10], 94.9 ± 1.6%; in assay [11] it was 2.58 ± 1.2%; in [13] it was 100 ± 1%. In addition, the “role of Q^3.32 and Q/H^7.39 in activity” value in assay [5] (26RFa, QRFPR) is recorded as “critical for the activity”. Further, the “effect of mutation on QRFPR activation” value in assay [5] (alanine substitution of W111^23.50 and two conserved cysteines (C118^3.25, C201^45.50)) was “notably hampered QRFPR activation”. Further, the “role of residues in 26RFa-induced receptor activation” value in [5] (residues around Arg25-Phe26-amide except I218^5.42 (E203, Q318, Y214, V129, F289, Q125, C98, F322)) is given as “essential for 26RFa-induced receptor activation”. In addition, the “effect of mutation on 26RFa activity” value in [8] (QRFPR 6.59 to alanine (printed D^6.59)) is reported as “almost did not affect 26RFa activity”. For the same substance, the “role of amide-surrounding residues (C^2.57, T^2.61, Q^3.32, Q/H^7.39) in activity” value in [12] is “critical for 26RFa and NPY/PP activities”. The “selectivity for QRFPR” value in assay [14] is “high selectivity of 26RFa for QRFPR”.
